Data published in PubChem BioAssay (NCI).
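The compound was tested at five concentrations on cells cultured in 96-well plates, with a 48-hour exposure period. GI50: concentration for 50% inhibition of growth. TGI is the concentration that stops growth completely.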

Columns and labels:
Assay in all cases: inhibition of tumour cell growth, NCI panel, 48 h
[1] = test system: 786-0 renal
[2] = test system: A498 renal
[3] = test system: A549 NSCLC
[4] = test system: ACHN renal
[5] = test system: CAKI-1 renal
[6] = test system: COLO 205 colon
[7] = test system: DU-145 prostate
[8] = test system: EKVX NSCLC
[9] = test system: HCC-2998 colon
[10] = test system: HCT-116 colon
[11] = test system: HCT-15 colon
[12] = test system: HL-60(TB) leukemia
[13] = test system: HOP-62 NSCLC
[14] = test system: HOP-92 NSCLC
[15] = test system: HS 578T breast
[16] = test system: HT29 colon
[17] = test system: IGROV1 ovarian
[18] = test system: K-562 leukemia
[19] = test system: KM12 colon
[20] = test system: LOX IMVI melanoma
[21] = test system: M14 melanoma
[22] = test system: MALME-3M melanoma
[23] = test system: MCF7 breast
[24] = test system: MDA-MB-231 breast
[25] = test system: MDA-MB-435
[26] = test system: MOLT-4 leukemia
[27] = test system: NCI-H226 lung
[28] = test system: NCI-H23 lung
[29] = test system: NCI-H460 lung
[30] = test system: NCI-H522 lung
[31] = test system: NCI/ADR-RES ovarian
[32] = test system: OVCAR-3 ovarian
[33] = test system: OVCAR-4 ovarian
[34] = test system: OVCAR-5 ovarian
[35] = test system: OVCAR-8 ovarian
[36] = test system: PC-3 prostate
[37] = test system: RPMI-8226 leukemia
[38] = test system: RXF 393 renal
[39] = test system: SF-268 CNS
[40] = test system: SF-295 CNS
[41] = test system: SF-539 CNS
[42] = test system: SK-MEL-2 melanoma
[43] = test system: SK-MEL-28 melanoma
[44] = test system: SK-MEL-5 melanoma
[45] = test system: SK-OV-3 ovarian
[46] = test system: SN12C renal
[47] = test system: SNB-19 CNS
[48] = test system: SNB-75 CNS
[49] = test system: SW-620 colon
[50] = test system: T-47D breast
[51] = test system: TK-10 renal
[52] = test system: U251 CNS
[53] = test system: UACC-257 melanoma
[54] = test system: UACC-62 melanoma
[55] = test system: UO-31 renal

In the case of `O=c1c2[nH]ccc2nc2n1CCS2`, the GI50 [1] is reported as greater than 100 µM, the TGI [1] is reported as greater than 100 µM and the GI50 [2] is reported as greater than 100 µM. It also gave a TGI [2] greater than 100 µM, a GI50 [3] greater than 100 µM and a TGI [3] greater than 100 µM. It also gave a GI50 [4] greater than 100 µM, a TGI [4] greater than 100 µM and a GI50 [5] greater than 100 µM. The TGI [5] was greater than 100 µM, the GI50 [6] was greater than 100 µM and the TGI [6] was greater than 100 µM. The GI50 [7] was greater than 100 µM, the TGI [7] was greater than 100 µM and the GI50 [8] was greater than 100 µM. For the same compound, the TGI [8] was greater than 100 µM, the GI50 [9] was greater than 100 µM and the TGI [9] was greater than 100 µM. It also gave a GI50 [10] greater than 100 µM, a TGI [10] greater than 100 µM and a GI50 [11] greater than 100 µM. The TGI [11] was greater than 100 µM, the GI50 [12] was 46.6 µM and the TGI [12] was greater than 100 µM. The GI50 [13] was greater than 100 µM, the TGI [13] was greater than 100 µM and the GI50 [14] was greater than 100 µM. For the same compound, the TGI [14] was greater than 100 µM, the GI50 [15] was greater than 100 µM and the TGI [15] was greater than 100 µM. It also gave a GI50 [16] greater than 100 µM, a TGI [16] greater than 100 µM and a GI50 [17] greater than 100 µM. The TGI [17] was greater than 100 µM, the GI50 [18] was greater than 100 µM and the TGI [18] was greater than 100 µM. It also gave a GI50 [19] greater than 100 µM, a TGI [19] greater than 100 µM and a GI50 [20] greater than 100 µM. It also gave a TGI [20] greater than 100 µM, a GI50 [21] greater than 100 µM and a TGI [21] greater than 100 µM. It also gave a GI50 [22] greater than 100 µM, a TGI [22] greater than 100 µM and a GI50 [23] greater than 100 µM. For the same compound, the TGI [23] was greater than 100 µM, the GI50 [24] was greater than 100 µM and the TGI [24] was greater than 100 µM. It also gave a GI50 [25] greater than 100 µM, a TGI [25] greater than 100 µM and a GI50 [26] greater than 100 µM. It also gave a TGI [26] greater than 100 µM, a GI50 [27] greater than 100 µM and a TGI [27] greater than 100 µM. For the same compound, the GI50 [28] was greater than 100 µM, the TGI [28] was greater than 100 µM and the GI50 [29] was greater than 100 µM. For the same compound, the TGI [29] was greater than 100 µM, the GI50 [30] was greater than 100 µM and the TGI [30] was greater than 100 µM. The GI50 [31] was greater than 100 µM, the TGI [31] was greater than 100 µM and the GI50 [32] was greater than 100 µM. For the same compound, the TGI [32] was greater than 100 µM, the GI50 [33] was greater than 100 µM and the TGI [33] was greater than 100 µM. The GI50 [34] was greater than 100 µM, the TGI [34] was greater than 100 µM and the GI50 [35] was greater than 100 µM. The TGI [35] was greater than 100 µM, the GI50 [36] was greater than 100 µM and the TGI [36] was greater than 100 µM. For the same compound, the GI50 [37] was greater than 100 µM, the TGI [37] was greater than 100 µM and the GI50 [38] was greater than 100 µM. The TGI [38] was greater than 100 µM, the GI50 [39] was greater than 100 µM and the TGI [39] was greater than 100 µM. The GI50 [40] was greater than 100 µM, the TGI [40] was greater than 100 µM and the GI50 [41] was greater than 100 µM. For the same compound, the TGI [41] was greater than 100 µM, the GI50 [42] was greater than 100 µM and the TGI [42] was greater than 100 µM. The GI50 [43] was greater than 100 µM, the TGI [43] was greater than 100 µM and the GI50 [44] was 324 nM. For the same compound, the TGI [44] was 913 nM, the GI50 [45] was greater than 100 µM and the TGI [45] was greater than 100 µM. The GI50 [46] was greater than 100 µM, the TGI [46] was greater than 100 µM and the GI50 [47] was greater than 100 µM. For the same compound, the TGI [47] was greater than 100 µM, the GI50 [48] was 33.6 µM and the TGI [48] was greater than 100 µM. For the same compound, the GI50 [49] was greater than 100 µM, the TGI [49] was greater than 100 µM and the GI50 [50] was greater than 100 µM. For the same compound, the TGI [50] was greater than 100 µM, the GI50 [51] was greater than 100 µM and the TGI [51] was greater than 100 µM. For the same compound, the GI50 [52] was greater than 100 µM, the TGI [52] was greater than 100 µM and the GI50 [53] was greater than 100 µM. It also gave a TGI [53] greater than 100 µM, a GI50 [54] greater than 100 µM and a TGI [54] greater than 100 µM. The GI50 [55] was greater than 100 µM and the TGI [55] was greater than 100 µM.
